# Measurements published in PubChem BioAssay AID1902 (Broad Institute, 2009).
# Calls of active or inactive are those of the source.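 The calls were made as follows: active = EC50 no more than a set limit of log units above the highest dose; inactive = the rest.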
# Target: S. pyogenes SKKanGAS, kanamycin survival, BacTiterGlo, 6 h
# Assay: SKKanGAS survival reduction under kanamycin, dose response, streptokinase promoter inhibitor project, SKKanGAS strain, luminescence, dose confirmation (AID 1902);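 also: lower survival reflects blocked streptokinase promoter driving kanamycin resistance gene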
row,Structure (SMILES),EC50
1,CCn1cc(Cl)c(C(=O)N2N=C(c3ccc4ccccc4c3)CC2c2ccccc2O)n1 (stereo not drawn),6.13 µM
2,O=C(NNC(=S)NC(=O)c1cn(-c2ccccc2)nc1-c1ccccc1)c1ccncc1,0.151 µM
3,CCCCCCCCCCOC(=O)Cn1c(COc2ccccc2)[n+](C)c2ccccc21,7.96 µM
4,Cc1ccc(/C=C/C(=O)c2ccccc(=O)c2O)c(C)c1,3.57 µM
5,COc1ccc(/C=N/NC(=O)c2cc(C(C)(C)C)[nH]n2)cc1COc1ccc(F)cc1F,7.62 µM
6,CC(OC(=O)Cc1n[nH]c(=O)c2ccccc12)C(=O)Nc1ccc(Cl)cn1 (stereo not drawn),14.7 µM
7,O=C(Oc1cccc(/C=N/Nc2nc(Nc3ccccc3)nc(N3CCOCC3)n2)c1)c1ccco1,2.03 µM
8,Cc1cc(N2C(=O)C(O)=C(C(=O)c3cc4ccccc4o3)C2c2ccc(Br)cc2)no1 (stereo not drawn),1.24 µM
9,Cc1nn(CC(=O)Nc2c(F)c(F)cc(F)c2F)c(=O)c2cccn12,> 15 µM (inactive)
10,CC1=Nc2ccccc2/C1=C\c1nc(-c2ccc(F)cc2)oc1O,7.57 µM
11,Cc1ccc(/C=C/C(=O)c2ccccc(=O)c2O)cc1C,4.04 µM
12,CC(=O)Nc1nc(NC(=O)/C=C/c2ccccc2)n(-c2ccccc2)n1,1.74 µM
13,O=C1CCCc2oc3c(cc(NS(=O)(=O)c4ccc5c6c(cccc46)C(=O)N5)c4ccccc43)c21,4.02 µM
14,Cc1ccc(CNC(=O)c2ccc([N+](=O)[O-])o2)cc1,4.67 µM
15,C[C@H]1COc2c(N3CCN(C)CC3)c(F)cc3c(=O)c(C(=O)O)cn1c23,1.55 µM
16,O=c1ccc(N=Nc2ccccc2)ccc1O,3.51 µM
17,COc1ccc(C(=O)NNC(=S)NC(=O)c2cccs2)cc1,2.2 µM
18,CC(=O)c1cccc2c(O)c(C3=Nc4ccccc4C3=O)[nH]c12,6.32 µM
19,COc1ccc(S(=O)(=O)Nc2cc3c4c(oc3c3ccccc23)CC(C)(C)CC4=O)cc1,6.26 µM
20,CCOC(=O)c1c(C)oc2c1c(C(c1ccccc1)N1CCOCC1)c(O)c1ccccc12 (stereo not drawn),2.66 µM
21,O=C(N/N=C/c1cc(Cl)cc([N+](=O)[O-])c1O)C(O)(c1ccccc1)c1ccccc1,3.38 µM
22,COc1ccccc1-c1nnc(NC(=O)CCS(=O)(=O)c2ccccc2)o1,> 15 µM (inactive)
23,O=C1C2=C(NC(=S)NC2c2ccc(Cl)cc2)NC(c2ccc(Cl)cc2)N1c1ccc(Cl)cc1 (stereo not drawn),1.93 µM
24,CCCCNC(=O)c1sc(=S)n2c1[nH]c(=O)c1ccccc12,9.08 µM
25,Cn1c(-c2c(N)n(C3CCCC3)c3nc4ccccc4nc23)nc2ccccc21,1.12 µM
26,CC1(C)CC(c2nc(-c3ccc(Cl)cc3)cs2)CCS1 (stereo not drawn),6.7 µM
27,c1ccc(CCNc2nc(-c3ccccn3)nc3ccccc23)cc1,0.884 µM

row,Structure (SMILES),EC50
1,CC(=O)OCCCNc1cc(Sc2nc3ccccc3s2)c2nonc2c1[N+](=O)[O-],2.43 µM
2,O=C(CSc1nnc(-c2ccc3c(c2)OCO3)o1)Nc1ncc(C(F)(F)F)cc1Cl,0.856 µM
3,Nc1[nH]n2c(=O)c3c(nc2c1N=Nc1ccc(Cl)cc1)CCCC3,6.13 µM
4,Cc1onc(-c2c(F)cccc2Cl)c1C(=O)NCc1ccc2c(c1)OCO2,> 15 µM (inactive)
5,Cc1c(C(=O)Nc2nonc2-c2ccc(F)cc2)oc2ccc(F)cc12,4.06 µM
6,Cc1nc2ccccc2c(=O)n1/N=C/c1cc(Br)cc(Br)c1O,3.04 µM
7,S=C(NCCSCc1ccc(Cl)c(Cl)c1)Nc1ccccc1,3.71 µM
8,O=C(O)CSc1nnc(Cn2c(=O)sc3ccccc32)n1-c1cccc(Cl)c1,> 15 µM (inactive)
9,COc1ccc2cc(C(=O)NCc3ccccc3)c(=Nc3ccc(C(=O)O)cc3)oc2c1,3.83 µM
10,Cc1cccc(-n2nc(C(=O)c3ccco3)cc(-c3nc4ccccc4[nH]3)c2=N)c1,3.36 µM
11,CCC(C)Sc1cc(-c2nc3ccccn3c2NC2CCCCC2)ccc1OC (stereo not drawn),2.94 µM
12,O=C(/C=C/c1ccccc1)NC(NC(=S)Nc1cc(Cl)ccc1Cl)C(Cl)(Cl)Cl (stereo not drawn),0.55 µM
13,O=C(CSc1ccc(-c2ccc(Cl)cc2)nn1)NC1CCCC1,> 15 µM (inactive)
14,COc1ccc(C(=O)c2c(C(F)(F)F)oc3c2C(=O)c2ccccc2C3=O)cc1OC,0.746 µM
15,CC(C)(C)c1ccc(C(=O)NC(=S)NNC(=O)COc2ccccc2)cc1,< 0.06 µM
16,Cn1c(SCC(=O)Nc2cccc3ccccc23)nc(O)cc1=O,> 15 µM (inactive)
17,Cc1cccc(Nc2nc(N)nc(CN3CCN(c4ccc(F)cc4)CC3)n2)c1,15.6 µM
18,Cc1sc2nc(-c3ccccn3)[nH]c(=O)c2c1-c1ccccc1,1.28 µM
19,CC(C)c1ccccc1OCC(O)CN(CC(O)COc1cccc2ccccc12)C(C)C (stereo not drawn),4.24 µM
20,Clc1ccc2c(N/N=C/c3cccc(Br)c3)ccnc2c1,2.86 µM
21,FC(F)(F)c1cccc(NC(=S)Nc2ccc(Cl)c(Cl)c2)c1,2.45 µM
22,CCN1CCN(Cc2ccc(NC(=O)c3ccc(C)c(/C=C/c4cnc(Nc5cc(N6CCNCC6)nc(C)n5)cn4)c3)cc2C(F)(F)F)CC1,8.41 µM
23,Cc1ccc(-c2cc(-c3cccc(F)c3)n[nH]2)c(O)c1,4.32 µM
24,CCN1/C(=C/c2ccc3ccccc3[n+]2CC)C=Cc2ccccc21,6.08 µM
25,Oc1c(Br)cc(Br)cc1/C=N/NC(=S)N[C@H]1CC2C=CC1C2 (stereo partly drawn),0.15 µM
26,O=C(NNC(=S)NC(=O)c1cccc([N+](=O)[O-])c1)c1ccc(Br)cc1,2.07 µM
